Measurements: PMC9851200, “Multiparameter phenotypic screening for endogenous TFEB and TFE3 translocation identifies novel chemical series modulating lysosome function” (Autophagy, 2022)

Key:
Format in all cases: binding
[1] = target: T1, kinases (KINOMEscan panel) (Homo sapiens, UniProt P51956); conditions: kinase NEK3; NEW KINOMEscan
T1 sequence (P51956 1-506): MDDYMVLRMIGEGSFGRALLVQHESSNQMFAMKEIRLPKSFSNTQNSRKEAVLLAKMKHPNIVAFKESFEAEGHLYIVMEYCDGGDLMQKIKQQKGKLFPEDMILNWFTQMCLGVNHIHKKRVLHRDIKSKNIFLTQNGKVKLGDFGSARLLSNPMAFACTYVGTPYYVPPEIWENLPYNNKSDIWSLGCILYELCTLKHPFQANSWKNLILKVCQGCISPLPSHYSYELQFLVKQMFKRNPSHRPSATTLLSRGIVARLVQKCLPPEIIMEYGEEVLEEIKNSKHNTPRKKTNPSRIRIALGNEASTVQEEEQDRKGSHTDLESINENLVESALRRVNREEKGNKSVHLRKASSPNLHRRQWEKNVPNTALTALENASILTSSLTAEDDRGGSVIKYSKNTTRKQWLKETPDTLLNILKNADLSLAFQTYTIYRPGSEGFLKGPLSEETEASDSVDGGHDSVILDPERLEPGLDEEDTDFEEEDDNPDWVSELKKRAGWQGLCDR

[2] = target: T2, kinases (KINOMEscan panel) (Homo sapiens, UniProt Q16566); conditions: CAMK4; NEW KINOMEscan
T2 sequence (Q16566 1-473): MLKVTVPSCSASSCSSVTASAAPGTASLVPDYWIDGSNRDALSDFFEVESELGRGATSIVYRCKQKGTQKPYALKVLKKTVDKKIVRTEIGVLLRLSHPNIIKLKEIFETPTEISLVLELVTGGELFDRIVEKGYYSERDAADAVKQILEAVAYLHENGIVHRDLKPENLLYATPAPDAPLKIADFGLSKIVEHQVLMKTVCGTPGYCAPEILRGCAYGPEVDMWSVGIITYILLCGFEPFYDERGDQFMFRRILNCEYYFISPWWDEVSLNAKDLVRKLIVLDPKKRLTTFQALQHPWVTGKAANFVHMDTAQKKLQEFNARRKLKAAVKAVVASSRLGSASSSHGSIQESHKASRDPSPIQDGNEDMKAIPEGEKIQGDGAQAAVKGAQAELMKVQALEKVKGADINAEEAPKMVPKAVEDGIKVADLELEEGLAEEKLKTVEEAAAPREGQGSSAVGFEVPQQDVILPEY

[3] = target: kinases (KINOMEscan panel) (Homo sapiens, UniProt P42338); conditions: PIK3CB; NEW KINOMEscan
[4] = target: kinases (KINOMEscan panel) (Homo sapiens, UniProt Q9H1R3); conditions: MYLK2; NEW KINOMEscan
[5] = target: T3, kinases (KINOMEscan panel) (Homo sapiens, UniProt Q13237); conditions: PRKG2; NEW KINOMEscan
T3 sequence (Q13237 1-762): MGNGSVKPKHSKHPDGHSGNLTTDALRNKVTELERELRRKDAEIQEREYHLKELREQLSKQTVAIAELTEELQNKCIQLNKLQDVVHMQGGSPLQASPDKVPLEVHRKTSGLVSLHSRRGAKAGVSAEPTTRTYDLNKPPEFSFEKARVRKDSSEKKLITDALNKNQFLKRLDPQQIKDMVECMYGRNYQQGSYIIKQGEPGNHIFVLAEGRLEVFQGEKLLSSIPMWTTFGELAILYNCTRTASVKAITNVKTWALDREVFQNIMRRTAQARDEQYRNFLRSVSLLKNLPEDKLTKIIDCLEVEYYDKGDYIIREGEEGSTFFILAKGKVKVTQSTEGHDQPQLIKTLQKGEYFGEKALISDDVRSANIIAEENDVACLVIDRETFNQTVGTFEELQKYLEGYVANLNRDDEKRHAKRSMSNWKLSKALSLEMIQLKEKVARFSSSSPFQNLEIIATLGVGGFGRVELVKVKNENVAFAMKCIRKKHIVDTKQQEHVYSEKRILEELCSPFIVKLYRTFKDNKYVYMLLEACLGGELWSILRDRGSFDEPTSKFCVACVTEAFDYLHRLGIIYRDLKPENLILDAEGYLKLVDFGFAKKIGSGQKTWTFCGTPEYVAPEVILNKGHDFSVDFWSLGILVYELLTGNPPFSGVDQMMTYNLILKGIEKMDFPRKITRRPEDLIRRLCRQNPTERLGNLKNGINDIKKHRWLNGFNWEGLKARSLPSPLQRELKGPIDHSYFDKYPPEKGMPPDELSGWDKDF

[6] = target: T4, kinases (KINOMEscan panel) (Homo sapiens, UniProt P29322); conditions: kinase EPHA8; NEW KINOMEscan
T4 sequence (P29322 28-1005): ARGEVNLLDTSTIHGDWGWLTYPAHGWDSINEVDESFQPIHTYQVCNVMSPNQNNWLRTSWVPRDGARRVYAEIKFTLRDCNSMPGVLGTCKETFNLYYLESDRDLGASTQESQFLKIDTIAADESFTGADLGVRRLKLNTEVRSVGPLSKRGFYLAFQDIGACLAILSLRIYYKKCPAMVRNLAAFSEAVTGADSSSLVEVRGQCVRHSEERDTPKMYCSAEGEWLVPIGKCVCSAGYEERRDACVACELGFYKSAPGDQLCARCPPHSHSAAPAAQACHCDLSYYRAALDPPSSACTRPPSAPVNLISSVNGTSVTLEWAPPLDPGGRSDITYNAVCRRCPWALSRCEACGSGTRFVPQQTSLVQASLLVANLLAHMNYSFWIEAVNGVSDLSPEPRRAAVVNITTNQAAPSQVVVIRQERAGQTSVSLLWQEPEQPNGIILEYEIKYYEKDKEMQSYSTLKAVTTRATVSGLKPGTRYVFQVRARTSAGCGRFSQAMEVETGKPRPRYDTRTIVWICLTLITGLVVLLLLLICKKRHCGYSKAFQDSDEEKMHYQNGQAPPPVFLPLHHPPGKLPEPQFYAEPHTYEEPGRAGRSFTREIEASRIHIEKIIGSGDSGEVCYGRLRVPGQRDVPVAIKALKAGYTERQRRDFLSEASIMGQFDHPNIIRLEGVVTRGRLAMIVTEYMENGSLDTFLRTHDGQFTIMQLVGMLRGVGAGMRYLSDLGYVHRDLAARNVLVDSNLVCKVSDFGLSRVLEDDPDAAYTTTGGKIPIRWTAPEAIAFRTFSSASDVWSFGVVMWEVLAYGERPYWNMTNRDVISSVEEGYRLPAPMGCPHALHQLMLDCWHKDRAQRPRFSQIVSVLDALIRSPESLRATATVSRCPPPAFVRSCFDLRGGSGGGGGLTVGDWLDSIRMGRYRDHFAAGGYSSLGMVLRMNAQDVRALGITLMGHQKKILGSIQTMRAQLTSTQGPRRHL

Sequence of kinases (KINOMEscan panel) (Homo sapiens, UniProt P42338) (P42338 whole entry): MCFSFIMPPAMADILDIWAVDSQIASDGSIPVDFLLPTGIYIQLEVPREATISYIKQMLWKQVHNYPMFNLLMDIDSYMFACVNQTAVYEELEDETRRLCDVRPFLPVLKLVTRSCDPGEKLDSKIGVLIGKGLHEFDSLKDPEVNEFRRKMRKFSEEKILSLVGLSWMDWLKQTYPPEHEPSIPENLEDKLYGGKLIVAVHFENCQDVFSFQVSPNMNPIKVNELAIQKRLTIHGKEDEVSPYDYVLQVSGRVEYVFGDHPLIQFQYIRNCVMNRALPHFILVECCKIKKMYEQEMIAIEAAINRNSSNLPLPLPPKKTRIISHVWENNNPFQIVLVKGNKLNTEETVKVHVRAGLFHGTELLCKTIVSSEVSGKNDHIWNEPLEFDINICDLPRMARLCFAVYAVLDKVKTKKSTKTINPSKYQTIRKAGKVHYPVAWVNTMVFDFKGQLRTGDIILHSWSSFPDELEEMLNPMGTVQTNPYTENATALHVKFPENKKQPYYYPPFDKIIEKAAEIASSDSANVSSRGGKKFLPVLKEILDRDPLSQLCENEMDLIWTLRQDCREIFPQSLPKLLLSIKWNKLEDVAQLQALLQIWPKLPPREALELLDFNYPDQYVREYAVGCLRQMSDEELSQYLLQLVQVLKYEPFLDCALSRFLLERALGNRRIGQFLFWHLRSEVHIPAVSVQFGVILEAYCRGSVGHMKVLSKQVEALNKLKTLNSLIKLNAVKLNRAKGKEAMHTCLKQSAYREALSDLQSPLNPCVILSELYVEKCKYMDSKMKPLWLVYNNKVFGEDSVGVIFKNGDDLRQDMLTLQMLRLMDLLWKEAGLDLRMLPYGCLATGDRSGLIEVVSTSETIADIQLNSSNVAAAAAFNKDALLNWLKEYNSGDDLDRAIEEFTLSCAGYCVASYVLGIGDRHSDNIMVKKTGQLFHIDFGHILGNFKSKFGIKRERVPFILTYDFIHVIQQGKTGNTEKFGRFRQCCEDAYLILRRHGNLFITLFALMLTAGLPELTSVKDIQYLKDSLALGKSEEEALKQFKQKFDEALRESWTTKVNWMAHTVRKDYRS
Sequence of kinases (KINOMEscan panel) (Homo sapiens, UniProt Q9H1R3) (Q9H1R3 whole entry): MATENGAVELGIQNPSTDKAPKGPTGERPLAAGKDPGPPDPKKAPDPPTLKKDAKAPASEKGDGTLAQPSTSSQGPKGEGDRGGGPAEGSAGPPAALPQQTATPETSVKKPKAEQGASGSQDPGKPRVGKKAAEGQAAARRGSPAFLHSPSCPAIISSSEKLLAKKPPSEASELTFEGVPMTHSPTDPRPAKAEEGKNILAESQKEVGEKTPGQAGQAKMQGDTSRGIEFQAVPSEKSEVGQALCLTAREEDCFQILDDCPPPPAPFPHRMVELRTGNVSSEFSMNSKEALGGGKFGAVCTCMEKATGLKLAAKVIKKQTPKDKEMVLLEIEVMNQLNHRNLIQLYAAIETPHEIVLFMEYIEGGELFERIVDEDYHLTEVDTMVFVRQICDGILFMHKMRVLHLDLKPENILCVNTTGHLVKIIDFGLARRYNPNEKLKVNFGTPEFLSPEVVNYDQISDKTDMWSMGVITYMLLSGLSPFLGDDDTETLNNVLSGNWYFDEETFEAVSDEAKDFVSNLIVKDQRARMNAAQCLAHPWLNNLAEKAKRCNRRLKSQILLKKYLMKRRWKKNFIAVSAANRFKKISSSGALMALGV

Row | SMILES | KINOMEscan NEK3 [1] | KINOMEscan CAMK4 [2] | KINOMEscan PIK3CB [3] | KINOMEscan MYLK2 [4] | KINOMEscan PRKG2 [5] | KINOMEscan EPHA8 [6]
1 | Cc1cccc(-c2nc(N(C)c3ccc4ncsc4c3)c3ccccc3n2)n1 [NK-161] | 33 | 7 | 0 | 9 | 0 | 0
2 | Cc1cccc(-c2nc(Nc3ccc4nn(C)cc4c3)c3ccccc3n2)n1 [NK167] | 46 | 2 | 0 | 0 | 5 | 0
